# Results from patent publication US20240166660A1, “KRAS G12C INHIBITORS” (BeiGene Switzerland GmbH, priority 2021, published 2024).
# Biological target: KRAS (aa 1-169) G12C, C51S, C80L, C118S (Homo sapiens (Human), UniProt P01116, C118S/C51S/C80L/G12C)
# Assay: Biochemical functional assay: SOS1-mediated nucleotide exchange of GDP-loaded KRAS G12C, binding to GST-cRaf RBD, FRET readout
# Settings: 3 hrs pre-incubation with compound at 24° C., SOS1, GTPyS, bound in uM
# How it was run: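 GDP-loaded His-tagged KRAS construct preincubated with compound 3 h at 24° C in 25 mM HEPES pH7.5, 10 mM MgCl2, 0.01% Triton X-100; SOS1 (aa 564-1049), GTPγS and GST-cRaf RBD added for 3 h, then anti-His Tb cryptate/anti-GST XL665 for 3 h. HTRF 665/620 ratio; IC50 by four-parameter logistic fit.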
# KRAS (aa 1-169) G12C, C51S, C80L, C118S, sequence (P01116 other isoform, or with tags, fused parts or gaps G12C/C51S/C80L/C118S): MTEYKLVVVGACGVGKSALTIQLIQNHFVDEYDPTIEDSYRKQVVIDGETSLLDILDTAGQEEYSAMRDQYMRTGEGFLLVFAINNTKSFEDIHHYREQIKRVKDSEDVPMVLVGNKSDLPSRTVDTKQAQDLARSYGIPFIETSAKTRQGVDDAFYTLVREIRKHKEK
row,Compound,IC50 [µM]
1,"C=CC(=O)N1CCN(c2nc(N3CC(N(C)C)C3)nc3cc(-c4ccccc4F)c4c(c23)OCCC4)CC1 [Compound B16, 1-(4-(8-(3-(dimethylamino)azetidin-1-yl)-5-(2-fluorophenyl)-3,4-dihydro-2H-pyrano[2,3-f]quinazolin-10-yl)piperazin-1-yl)prop-2-en-1-one]",> 10
2,"C=CC(=O)N1CCN(c2nc(N3CC(N(C)C)C3)nc3cc(-c4cccc(Cl)c4)c4c(c23)OCCC4)CC1 [Compound B17, 1-(4-(5-(3-chlorophenyl)-8-(3-(dimethylamino)azetidin-1-yl)-3,4-dihydro-2H-pyrano[2,3-f]quinazolin-10-yl)piperazin-1-yl)prop-2-en-1-one]",> 10
3,"C=CC(=O)N1CCN(c2nc(N3CC(N(C)C)C3)nc3cc(-c4ccccc4C)c4c(c23)OCCC4)CC1 [Compound B18, 1-(4-(8-(3-(dimethylamino)azetidin-1-yl)-5-(o-tolyl)-3,4-dihydro-2H-pyrano[2,3-f]quinazolin-10-yl)piperazin-1-yl)prop-2-en-1-one]",> 10
4,"C=CC(=O)N1CCN(c2nc(N3CC(N(C)C)C3)nc3cc(-c4ccccc4C#N)c4c(c23)OCCC4)CC1 [Compound B19, 2-(10-(4-acryloylpiperazin-1-yl)-8-(3-(dimethylamino)azetidin-1-yl)-3,4-dihydro-2H-pyrano[2,3-f]quinazolin-5-yl)benzonitrile]",> 10
5,"C=CC(=O)N1CCN(c2nc(N3CC(N(C)C)C3)nc3cc(-c4ccccc4Cl)c4c(c23)OCCC4)CC1 [Compound B21, 1-(4-(5-(2-chlorophenyl)-8-(3-(dimethylamino)azetidin-1-yl)-3,4-dihydro-2H-pyrano[2,3-f]quinazolin-10-yl)piperazin-1-yl)prop-2-en-1-one]",> 10
6,"C=CC(=O)N1CCN(c2nc(N3CCN(C)CC3)nc3cc(-c4cccc5cccc(Cl)c45)c4c(c23)OCCC4)CC1 [Compound B24, 1-(4-(5-(8-chloronaphthalen-1-yl)-8-(4-methylpiperazin-1-yl)-3,4-dihydro-2H-pyrano[2,3-f]quinazolin-10-yl)piperazin-1-yl)prop-2-en-1-one]",> 10

# Same assay, conditions: 3 hrs pre-incubation with compound at 24° C., SOS1, GTPyS, inhibition of nucleotide exchange
row,Compound,IC50 [µM]
1,"C=CC(=O)N1CCN(c2nc(OC[C@@H]3C[C@@H](F)CN3C)nc3cc(-c4c(Cl)c(C)cc5[nH]ncc45)c4c(c23)OCCC4)CC1 [Compound B15, 1-(4-(5-(5-chloro-6-methyl-1H-indazol-4-yl)-8-(((2S,4R)-4-fluoro-1-methylpyrrolidin-2-yl)methoxy)-3,4-dihydro-2H-pyrano[2,3-f]quinazolin-10-yl)piperazin-1-yl)prop-2-en-1-one]",0.107
2,"C=C(F)C(=O)N1CCN(c2nc(OC[C@@H]3C[C@@H](OC)CN3C)nc3cc(-c4cccc5cccc(Cl)c45)c4ccoc4c23)C[C@@H]1CC#N [Compound B20, 2-((S)-4-(4-(8-chloronaphthalen-1-yl)-7-(((2S,4R)-4-methoxy-1-methylpyrrolidin-2-yl)methoxy)furo[2,3-f]quinazolin-9-yl)-1-(2-fluoroacryloyl)piperazin-2-yl)acetonitrile]",0.016
3,"C=CC(=O)N1CCN(c2nc(N3CC(N(C)C)C3)nc3cc(-c4ccccc4C(F)(F)F)c4c(c23)OCCC4)CC1 [Compound B22, 1-(4-(8-(3-(dimethylamino)azetidin-1-yl)-5-(2-(trifluoromethyl)phenyl)-3,4-dihydro-2H-pyrano[2,3-f]quinazolin-10-yl)piperazin-1-yl)prop-2-en-1-one]",0.568
4,"C=CC(=O)N1CCN(c2nc(N(C)CCN(C)C)nc3cc(-c4cccc5cccc(Cl)c45)c4c(c23)OCCC4)CC1 [Compound B23, 1-(4-(5-(8-chloronaphthalen-1-yl)-8-((2-(dimethylamino)ethyl)(methyl)amino)-3,4-dihydro-2H-pyrano[2,3-f]quinazolin-10-yl)piperazin-1-yl)prop-2-en-1-one]",0.202
5,"C=CC(=O)N1CCN(c2nc(N3CCC(N(C)C)C3)nc3cc(-c4c(Cl)c(C)cc5[nH]ncc45)c4c(c23)OCCC4)CC1 (stereo not drawn) [Compound B25, 1-(4-(5-(5-chloro-6-methyl-1H-indazol-4-yl)-8-(3-(dimethylamino)pyrrolidin-1-yl)-3,4-dihydro-2H-pyrano[2,3-f]quinazolin-10-yl)piperazin-1-yl)prop-2-en-1-one]",0.138
6,"C=CC(=O)N1CCN(c2nc(N3CC(CN(C)C)C3)nc3cc(-c4cccc5cccc(Cl)c45)c4c(c23)OCCC4)CC1 [Compound B26, 1-(4-(5-(8-chloronaphthalen-1-yl)-8-(3-((dimethylamino)methyl)azetidin-1-yl)-3,4-dihydro-2H-pyrano[2,3-f]quinazolin-10-yl)piperazin-1-yl)prop-2-en-1-one]",0.239
7,"C=CC(=O)N1CCN(c2nc(OC[C@@H]3C[C@@H](F)CN3C)nc3cc(N4CCCc5ccccc54)c4c(c23)OCCC4)CC1 [Compound B27, 1-(4-(5-(3,4-dihydroquinolin-1(2H)-yl)-8-(((2S,4R)-4-fluoro-1-methylpyrrolidin-2-yl)methoxy)-3,4-dihydro-2H-pyrano[2,3-f]quinazolin-10-yl)piperazin-1-yl)prop-2-en-1-one]",0.321
8,"C=CC(=O)N1CCN(c2nc(OC[C@@H]3CCCN3C)nc3cc(-c4c(Cl)c(C)cc5[nH]ncc45)c4c(c23)OCC4)CC1 [Compound B28, 1-(4-(4-(5-chloro-6-methyl-1H-indazol-4-yl)-7-(((S)-1-methylpyrrolidin-2-yl)methoxy)-2,3-dihydrofuro[2,3-f]quinazolin-9-yl)piperazin-1-yl)prop-2-en-1-one]",0.113
9,"C=C(F)C(=O)N1CCN(c2nc(OC[C@@H]3CCCN3C)nc3cc(-c4ccc(F)c5sc(N)nc45)c4c(c23)OCCC4)C[C@@H]1CC#N [Compound B29, 2-((S)-4-(5-(2-amino-7-fluorobenzo[d]thiazol-4-yl)-8-(((S)-1-methylpyrrolidin-2-yl)methoxy)-3,4-dihydro-2H-pyrano[2,3-f]quinazolin-10-yl)-1-(2-fluoroacryloyl)piperazin-2-yl)acetonitrile]",0.00451
10,"C=C(F)C(=O)N1CCN(c2nc(OC[C@@H]3CCCN3C)nc3cc(-c4c(Cl)c(C)cc5[nH]ncc45)c4c(c23)OCC4)C[C@@H]1CC#N [Compound B30, 2-((2S)-4-(4-(5-chloro-6-methyl-1H-indazol-4-yl)-7-(((S)-1-methylpyrrolidin-2-yl)methoxy)-2,3-dihydrofuro[2,3-f]quinazolin-9-yl)-1-(2-fluoroacryloyl)piperazin-2-yl)acetonitrile]",0.0096
11,"C=C(F)C(=O)N1CCN(c2nc(OC[C@@H]3CCCN3C)nc3cc(-c4ccccc4F)c4c(c23)OCCC4)C[C@@H]1CC#N [Compound B31, 2-((S)-1-(2-fluoroacryloyl)-4-(5-(2-fluorophenyl)-8-(((S)-1-methylpyrrolidin-2-yl)methoxy)-3,4-dihydro-2H-pyrano[2,3-f]quinazolin-10-yl)piperazin-2-yl)acetonitrile]",0.984
12,"C=C(F)C(=O)N1CCN(c2nc(OC[C@@H]3CCCN3C)nc3cc(-c4ccccc4C4CC4)c4c(c23)OCCC4)C[C@@H]1CC#N [Compound B32, 2-((S)-4-(5-(2-cyclopropylphenyl)-8-(((S)-1-methylpyrrolidin-2-yl)methoxy)-3,4-dihydro-2H-pyrano[2,3-f]quinazolin-10-yl)-1-(2-fluoroacryloyl)piperazin-2-yl)acetonitrile]",0.226
13,"C=C(F)C(=O)N1CCN(c2nc(OC[C@@H]3CCCN3C)nc3cc(-c4ccccc4C(F)(F)F)c4c(c23)OCCC4)C[C@@H]1CC#N [Compound B33, 2-((S)-1-(2-fluoroacryloyl)-4-(8-(((S)-1-methylpyrrolidin-2-yl)methoxy)-5-(2-(trifluoromethyl)phenyl)-3,4-dihydro-2H-pyrano[2,3-f]quinazolin-10-yl)piperazin-2-yl)acetonitrile]",0.051
14,"C=CC(=O)N1CCN(c2nc(OC[C@@H]3CCCN3C)nc3cc(-c4c(Cl)c(C)cc5[nH]ncc45)c4ccoc4c23)CC1 [Compound B34, 1-(4-(4-(5-chloro-6-methyl-1H-indazol-4-yl)-7-(((S)-1-methylpyrrolidin-2-yl)methoxy)furo[2,3-f]quinazolin-9-yl)piperazin-1-yl)prop-2-en-1-one]",0.065
15,"C=C(F)C(=O)N1CCN(c2nc(OC[C@@H]3CCCN3C)nc3cc(-c4c(Cl)c(C)cc5[nH]ncc45)c4ccoc4c23)C[C@@H]1CC#N [Compound B35, 2-((2S)-4-(4-(5-chloro-6-methyl-1H-indazol-4-yl)-7-(((S)-1-methylpyrrolidin-2-yl)methoxy)furo[2,3-f]quinazolin-9-yl)-1-(2-fluoroacryloyl)piperazin-2-yl)acetonitrile]",0.0084
16,"C=C(F)C(=O)N1CCN(c2nc(OC[C@@H]3CCCN3C)nc3cc(-c4c(Cl)c(Cl)cc5[nH]ncc45)c4c(c23)OCCC4)C[C@@H]1CC#N [Compound B36, 2-((2S)-4-(5-(5,6-dichloro-1H-indazol-4-yl)-8-(((S)-1-methylpyrrolidin-2-yl)methoxy)-3,4-dihydro-2H-pyrano[2,3-f]quinazolin-10-yl)-1-(2-fluoroacryloyl)piperazin-2-yl)acetonitrile]",0.047
17,"C=C(F)C(=O)N1CCN(c2nc(OC[C@@H]3CCCN3C)nc3cc(-c4cccc5cccc(F)c45)c4c(c23)OCCC4)C[C@@H]1CC#N [Compound B37, 2-((S)-1-(2-fluoroacryloyl)-4-(5-(8-fluoronaphthalen-1-yl)-8-(((S)-1-methylpyrrolidin-2-yl)methoxy)-3,4-dihydro-2H-pyrano[2,3-f]quinazolin-10-yl)piperazin-2-yl)acetonitrile]",0.008
18,"C=C(F)C(=O)N1CCN(c2nc(OC[C@@H]3CCCN3C)nc3cc(-c4c(F)cccc4F)c4ccoc4c23)C[C@@H]1CC#N [Compound B38, 2-((S)-4-(4-(2,6-difluorophenyl)-7-(((S)-1-methylpyrrolidin-2-yl)methoxy)furo[2,3-f]quinazolin-9-yl)-1-(2-fluoroacryloyl)piperazin-2-yl)acetonitrile]",0.913
